These results are taken from paper PMC3615092, “Identification, Design and Bio-Evaluation of Novel Hsp90 Inhibitors by Ligand-Based Virtual Screening” (PLoS ONE, 2013).

Common to all, as to format: cell-based
In one experiment the test system is SKBR3. Briefly: Cell morphological assessment (DAPI staining, apoptosis). The conditions noted are these: SK-BR3, 2, 5, 10 μM, 24 h. As for the experimental part: (§1) To detect morphological evidence of apoptosis, HCT116, MCF-7 and SKBR3 cell nuclei were visualized following DNA staining with the fluorescent dye DAPI. Briefly, cells were seeded at a concentration of 1×10^5 cells/well in 6-well tissue culture plates and treated with indicated concentration of S13. At the end of incubation, the morphology of cells was monitored under an inverted light microscope. Cells were then fixed with 4% paraform for 20 min and washed with PBS, and then incubated with DAPI (1 μg/ml) for 10 min. After washed with PBS, cells were observed using fluorescent microscopy (Olympus, Japan) with a peak excitation wave length of 340 nm.

Another experiment relates to MCF-7. The description is as above. As for the experimental part: as §1
A further experiment relates to HCT116. The experiment is described as above. The conditions noted are these: HCT116, 2, 5, 10 μM, 24 h. As for the experimental part: as §1
The next experiment has as its system MCF-7 cells. Briefly: Western-Blot analysis of Hsp90 client proteins and Hsp70. The conditions noted are these: MCF-7, 36 h. As for the experimental part:
MCF-7 cells were pretreated with various concentrations of the test compounds. After stimulation, cells were collected; lysed in lysis buffer [50 mM Tris-Cl, pH 7.6, 150 Mm NaCl, 1 mM EDTA, 1% (m/v) Nonidet P-40 (NP-40), 0.2 mM Phenylmethanesulfonyl fluoride (PMSF), 0.1 mM NaF and 1.0 mM dithiothreitol (DTT)], and the supernatant was obtained after centrifugation at 13,000× g for 10 min at 4°C. The concentration of protein in the supernatants was measured by the bicinchoninic acid (BCA) assay. Then equal amounts of protein (50 μg) were separated by 8% or 10% sodium dodecyl sulfate polyacrylamide gel electrophoresis (SDS-PAGE) and transferred onto the PVDF membranes (Millipore, Billerica, MA). The blots were incubated with specific antibodies against the indicated primary antibodies overnight at 4°C followed by IRDyeTM800-conjugated secondary antibody for 1 h at 37°C. Detection was performed by the Odyssey Infrared Imaging System (LI-COR; Lincoln, NE). All blots were stripped and incubated with polyclonal anti-β-actin antibody to ascertain equal loading of proteins.

In the case of `COc1ccccc1N1CCN(CC(O)COCCOc2ccc(Br)cc2)CC1` (stereo not drawn) [Compound S13], the apoptosis-induced effects entry is given as “dose-dependent” in the experiment with SKBR3; “dose-dependent” with MCF-7 (MCF-7, 2, 5, 10 μM, 24 h); “dose-dependent” in the experiment with HCT116. In the experiment on MCF-7 (10 μM, MCF-7 cells), the apoptosis induced entry is recorded as “over 50%”. For the same molecule, the Hsp70 expression entry in the experiment on MCF-7 cells is “up-regulates”. In addition, the “depletion of Hsp90-dependent client proteins (Her2, Src, Akt, ERK, c-Raf, Hif-1α)” value in the experiment with MCF-7 cells was “concentration-dependent”.
